Data from patent US5041653A, “Substituted benzamide radiosensitizers” (SRI International, priority 1990, dated 1991).

Tests used:
[1] = test system: EMT6 tumors; assay: In vivo assay for radiosensitization activity (EMT6 tumors in female BALB/c mice, survival of dissected and cultured tumor cells, compared with MIS); design: key to Radiosensitization (score 0 to 4 vs MIS): 0: No radiosensitization; 1: Minimal radiosensitization (some radiosensitization relative to controls but lowest survival>3×lowest survival with MIS); 2: Moderate radiosensitization (not good as MIS, but lowest surviving fraction<3×lowest surviving fraction with MIS); 3: Good radiosensitization (equal to MIS); 4: Excellent radiosensitization (superior to MIS); conditions: for sensitizer enhancement ratio: at a 1-2 mM concentration, comparable to that for MIS; for Radiosensitization (score 0 to 4 vs MIS): EMT6 tumors, BALB/c mice, 5 mmole/kg or 2/3 of LD50 ip, 2,000 rad at 5 min to 2 hr after injection
Description: The compounds of the invention are tested in vivo for radiosensitization activity by the assay of Brown, J. M., Radiation Res (1975) 64:633-47, incorporated herein by reference. For this assay EMT6 tumors in female BALB/c mice weighing 20-25 g are used. These mice are bred under specific pathogen-free conditions and are 3-4 months old at the beginning of each experiment. The EMT6 tumor is grown intradermally in the flank from an inoculation of 2×10^5 tumor cells taken from the 2nd-8th in vitro passage of the tumor cells since removal from the previous in vivo tumor. Two tumors per mouse are implanted, and are used as subject tumors when they reach a volume of approximately […]. At this point the tumors contain approximately 20% hypoxic cells.
Test compounds are compared against MIS in this assay. The test compound is tested at a fixed injected dose of either 5 mmole/kg or 2/3 of the LD50 (whichever is lower), MIS is injected into controls at the same dose. Additional suitable controls of test compound-injected but non-irradiated and saline-injected and irradiated mice are also included. A fixed radiation dose of 2,000 rad is applied at variable intervals of 5 min to 2 hr between injection and irradiation. Typically, irradiation is applied at 5, 10, 15, 20, 30, 45, 60, 90, and 120 min following intraperitoneal administration of both drugs. By using these intervals, the results give an indication of both the optimum time to irradiate and of how the test compound sensitizes in relationship to MIS.
Irradiation of the EMT6 tumors is done by irradiating nonanesthetized tumor-bearing mice in a Plexiglas box. Irradiation conditions are 250 kVp X-rays, 15 mA, FSC 33 cm, added filtration of 0.35 mm Cu, half value layer 1.3 mm Cu, and a dose rate of 317 rad/min.
Radiosensitization activity is judged by survival rate of dissected and cultured tumor cells as follows: The tumor-bearing mice are killed immediately after irradiation, and tumors dissected from the skin, cut into several pieces, and made into a fine brei by high-speed chopping with a razor blade attached to a jigsaw. The brei is added to 30 ml of Hank's buffered salt solution (HBSS) containing 0.02% DNase, 0.05% promase, and 0.02% collagenase. The suspension is stirred for 30 min at 37° C., filtered, and centrifuged at 1,600 rmp for 10 min at 4° C. The cell pellet is resuspended in complete Waymouth's medium plus 121/2% horse serum plus 2-12% fetal calf serum (FCS) and an aliquot mixed with trypan blue and counted with the use of a hemacytometer. Suitable dilutions of this […] plated into 60- or 100-mm polystyrene petri dishes (Lux Scientific Corp) in 5 or 15 ml of medium. After incubation for 13 days, the colonies are fixed and stained, and those containing 50 cells or more are counted. The dilution yielding an average count of 25-100 colonies in a 60 mm dish is used in calculation of results.
The test compound is scored on the scale of 0 to 4 based on how it compares with MIS. The scoring system is:
1: Minimal radiosensitization (some radiosensitization relative to controls but lowest survival>3×lowest survival with MIS)
2: Moderate radiosensitization (not good as MIS, but lowest surviving fraction<3×lowest surviving fraction with MIS)
3: Good radiosensitization (equal to MIS)

[2] = Cytotoxicity test (% cell survival, hypoxic HA-1 cells); format: cell-based, Chinese hamster; conditions: chinese hamster, ha-1 cells, hypoxic, 10 mM test compound, 1 hr at 22° C., hypoxia (N2 containing 5% CO2)
Description: (§1) Cytotoxicity tests were also carried out on each of the compounds. The test procedure was as follows: Log-phase Chinese hamster ovary HA-1 cells were trypsinized (0.5% trypsin in Hank's buffered salt solution (HBSS)) and plated in 60 mm Permanox petri dishes in concentrations necessary to yield approximately 30 colonies after experimental treatment. The cells were allowed to attach overnight. Then the medium was removed from each dish and replaced with 2 ml of medium containing varying concentrations of the test compound. The petri dishes were then placed in nylon chamber fitted with gassing ports and, to achieve hypx=oxia, were gassed at room temperature with humidified N2 containing 5% CO2 for 1 hr at a rate of 1 l/min. The cells are then exposed to 10 mM of the test compound for 1 hr at 22° C. The % cell survival is read after such treatment.

[3] = test system: Chinese hamster ovary HA-1 cells; assay: as above; format: cell-based; conditions: 10 mM test compound, 1 hr at 22° C., hypoxia (N2 containing 5% CO2), 60 min, 10000 µM
Description: as §1

| SMILES | sensitizer enhancement ratio [1] | viability at 1 h, 10000 µM [2] | Radiosensitization (score 0 to 4 vs MIS) [1] | Cytotoxicity % Cell Survival [3] |
| --- | --- | --- | --- | --- |
| CC(=O)OCCOc1cccc(C(N)=O)c1 [3-(2-acetoylethoxy)benzamide, 3-(2-Acetoxyethoxy)benzamide] | 1.6 |  |  |  |
| NC(=O)c1cccc(OCCO)c1 [3-(2-hydroxyethoxy)benzamide] | 1.6 | 89% | 3 |  |
| NC(=O)c1cccc(O)c1 [3-hydroxybenzamide] | 1.6 | 90% | 3 | 77% |
